In patent EP0687469A2, “Anti-arrhythmic 3,7-diazabicyclo (3,3,1)nonane compounds” (Kali-Chemie Pharma GmbH, priority 1994, dated 1995):

Tests used:
[1] = tested on: verz.gleichr. Auswärtsstrom Ik; test: voltage clamp measurement of ion currents in isolated heart muscle cells (Ik); type: cell-based, Meerschweinchen; details: read-out: Blockade von Ionenströmen in % des Vorwerts verz.gleichr. Auswärtsstrom Ik
Excerpt: (§1) Die Experimente wurden mit der Spannungsklemmmethode an isolierten Herzmuskelzellen von Meerschweinchen und Ratten durchgeführt. Hierbei wurden die Messungen des Ito an Zellen von Rattenherzen und die Messungen des Ik an Zellen von Meerschweinchenherzen durchgeführt. Die Herzen wurden mit proteolytischen Enzymen (Collagenase) perfundiert, um das Bindegewebe zu lockern. Anschließend wurde das Gewebe mechanisch zerkleinert und sodann erfolgte eine weitere Vereinzelung der Zellen in einer Nährlösung im Schüttelbad. Durch anschließendes Zentrifugieren wurde eine Suspension von Herzmuskelzellen erhalten. Bei der angewendeten Spannungsklemmethode zur Messung der Membranströme wird mittels einer Mikroelektrode (in Form einer mit Elektrolytlösung gefüllten Glaskapillare) das Zellinnere mit einem Verstärker verbunden, der die Membranspannung vorgeben kann. Fließt nun ein Ionenstrom durch die Membran (= Öffnung des Ionenkanalproteins) und verschiebt die Membranspannung, kompensiert der Verstärker diese Verschiebung durch einen Gegenstrom, d. h. die Spannung ist sozusagen festgeklemmt. Der gemessene Gegenstrom entspricht in seinem zeitlichen Verlauf dem physiologischen Ionenstrom mit umgekehrtem Vorzeichen. Die Aktivierung der verschiedenen Ionenströme in der Zellmembran hängt charakteristisch von Spannung und Zeit ab. […]

[2] = tested on: transienter Auswärtsstrom Ito; test: voltage clamp measurement of ion currents in isolated heart muscle cells (Ito); type: cell-based, Ratten; details: read-out: Blockade von Ionenströmen in % des Vorwerts transienter Auswärtsstrom Ito
Excerpt: as §1

CC(C)CN1CC2CN(C(C)C)CC(C1)C21CCCCC1 [Bertosamil, N-Isobutyl-N'-isopropyl-9,9-pentamethylen-3,7-diazabicyclo[3,3,1]nonan]
inhibition at 1 µM [1]: 13% | inhibition at 1 µM [2]: 38%
